Data reported in publication PMC12118337, “Development of a Peptide Inhibitor Targeting the C‐SH2 Domain of the SHP2 Phosphatase” (Chembiochem, 2025).
Residues, ends and D or L forms follow the SMILES beside them. *: point of attachment. 5FAM = O=C1OC2(c3ccc(O)cc3Oc3cc(O)ccc32)c2ccc(C(=O)*)cc21; X1 = O=C(O)C(C(=O)O)*

Test system: WT Jurkat T cells
Assay: Peptide cellular uptake by confocal fluorescence microscopy, Jurkat
Assay type: cell-based
Settings: confocal fluorescence microscopy via FAM group, live cells, 50 or 100 μM peptide, 2 or 5 h, 37 °C; three independent experiments
Description: Multiply charged ions were selected for higher collisional dissociation (HCD) using a normalized collision energy (NCE) of 28%, fragmentation targeting for the 12 most abundant precursor ions. Fragment ions were measured with a resolution of 35,000 with a scan range of 200-2,000 m/z and an AGC target of 1E5. A dynamic exclusion time of 45 s with a maximum ion time of 120 ms and an isolation window of 3 m/z was set. Mass spectrometric data evaluation was performed using MaxQuant 1.6.5.0,[5] searching against a homo sapiens UniProt sequence database (2021/02; 218,230 entries including isoforms) supplemented with the protein sequences of the respective peptide used for the experiment. […] The protein list was analysed with Perseus v2.0.11.[6] […] The data was further analysed with the R language package and identified proteins compared with the CRAPome database (H. sapiens single step epitope tag AP-MS background contaminant list) to mitigate the influence of background contaminants (Table S2).[7] […] The significance thresholds were set to alpha 0.01 and a calculated log2 protein ratio of 4. […]
6. Peptide cellular uptake by fluorescence microscopy
The cell permeability of FAM-labelled peptides in WT Jurkat T cells (peptide 26 and peptide 28) and WT HeLa cells (peptide 28) was visualised by fluorescence microscopy. […]

In the case of `CC[C@H](C)[C@H](NC(=O)[C@@H](NC(=O)[C@H](C)NC(=O)[C@H](Cc1ccc(OC(C(=O)O)C(=O)O)cc1)NC(=O)[C@H](CCC(=O)O)NC(=O)[C@@H](NC(=O)[C@H](CCC(N)=O)NC(=O)c1ccc2c(c1)C(=O)OC21c2ccc(O)cc2Oc2cc(O)ccc21)[C@@H](C)O)[C@@H](C)O)C(=O)N[C@@H](CCCCN)C(=O)N[C@@H](Cc1c[nH]cn1)C(=O)N1CCC[C@H]1C(N)=O` [peptide 26] (5FAM-QTEY(X1)ATIKHP-NH2), the “cellular uptake in Jurkat cells” value is reported as “no cell uptake”.
